Data from US20160073662A1, “PRESERVATIVE AND ADDITIVE FOR FOOD AND FEED” (priority 2014, published 2016).

Assay: Contact of acid solution with human skin
Settings: solution with a pH of less than 0.5

O=S(=O)(O)O [sulfuric acid]
irritation of hand put into solution: an irritation would occur
